Like-named read-outs stand apart in the source and are kept apart here.
Tests used:
A375-NRAS^Q61K cells = experiment: CTGlo Cell Viability Assay, A375-NRAS^Q61K (A375.11) cells, 96 hours; assay type: cell-based, human; details: Homo sapiens, 96 h, A375.11 (A375-NRAS^Q61K) cells; for Emax: lowest % viability achieved
How it was run: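 A375 cells carrying BRAF V600E and NRAS Q61K were seeded at 250 cells/well with a 10-point half-log dose series (max 10 μM final). After 96 h at 37 °C, viability was read as ATP luminescence (CellTiter-Glo), background-subtracted and normalized to DMSO (100%). GI50 from 4-parameter fit; Emax is the lowest % viability.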

BRAF V600E = target: T1, BRAF V600E (Homo sapiens, UniProt P15056+Q96SW2, V600E); experiment: BRAF V600E HiBiT Degradation Assay; assay type: cell-based; details: A375.10 cells, BRAF V600E
T1 construct: knock-in of the HiBiT tag to the endogenous BRAF V600E locus; host or cells: A375.10 (A375 clonal line, CRISPR HiBiT knock-in at the endogenous BRAF V600E locus)
T1 sequence (P15056 whole entry V600E): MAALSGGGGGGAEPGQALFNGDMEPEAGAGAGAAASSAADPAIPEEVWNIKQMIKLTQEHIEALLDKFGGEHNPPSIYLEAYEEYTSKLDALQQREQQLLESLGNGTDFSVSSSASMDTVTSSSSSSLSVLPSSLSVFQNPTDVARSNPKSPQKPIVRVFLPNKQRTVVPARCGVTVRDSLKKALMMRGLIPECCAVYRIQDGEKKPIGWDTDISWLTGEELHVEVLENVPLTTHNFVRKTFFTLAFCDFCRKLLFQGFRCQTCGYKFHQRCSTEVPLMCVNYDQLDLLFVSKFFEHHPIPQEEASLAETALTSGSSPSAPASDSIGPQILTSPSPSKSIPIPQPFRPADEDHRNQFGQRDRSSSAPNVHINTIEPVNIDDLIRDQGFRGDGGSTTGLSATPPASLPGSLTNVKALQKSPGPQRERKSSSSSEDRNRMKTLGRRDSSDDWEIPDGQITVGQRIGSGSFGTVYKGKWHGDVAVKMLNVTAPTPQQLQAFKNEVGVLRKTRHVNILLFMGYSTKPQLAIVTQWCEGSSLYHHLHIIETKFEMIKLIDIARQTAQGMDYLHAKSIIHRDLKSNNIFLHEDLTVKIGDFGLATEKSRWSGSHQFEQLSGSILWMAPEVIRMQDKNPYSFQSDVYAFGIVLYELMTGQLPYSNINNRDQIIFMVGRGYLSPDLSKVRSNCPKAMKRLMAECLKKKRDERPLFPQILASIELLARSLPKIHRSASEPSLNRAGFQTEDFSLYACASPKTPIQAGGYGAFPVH
T1 sequence (Q96SW2 whole entry): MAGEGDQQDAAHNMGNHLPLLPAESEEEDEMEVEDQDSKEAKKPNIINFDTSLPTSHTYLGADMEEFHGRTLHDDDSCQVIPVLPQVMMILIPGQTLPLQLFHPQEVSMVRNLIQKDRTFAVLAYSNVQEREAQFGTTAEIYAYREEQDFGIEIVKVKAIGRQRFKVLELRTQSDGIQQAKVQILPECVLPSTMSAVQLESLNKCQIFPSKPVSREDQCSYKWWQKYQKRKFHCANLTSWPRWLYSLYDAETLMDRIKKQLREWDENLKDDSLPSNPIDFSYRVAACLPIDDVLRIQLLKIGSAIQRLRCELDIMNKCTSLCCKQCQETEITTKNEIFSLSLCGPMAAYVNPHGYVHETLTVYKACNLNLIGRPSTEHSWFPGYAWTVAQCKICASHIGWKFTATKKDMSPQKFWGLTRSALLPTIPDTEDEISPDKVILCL
T1 sequence (Q16531 whole entry partner): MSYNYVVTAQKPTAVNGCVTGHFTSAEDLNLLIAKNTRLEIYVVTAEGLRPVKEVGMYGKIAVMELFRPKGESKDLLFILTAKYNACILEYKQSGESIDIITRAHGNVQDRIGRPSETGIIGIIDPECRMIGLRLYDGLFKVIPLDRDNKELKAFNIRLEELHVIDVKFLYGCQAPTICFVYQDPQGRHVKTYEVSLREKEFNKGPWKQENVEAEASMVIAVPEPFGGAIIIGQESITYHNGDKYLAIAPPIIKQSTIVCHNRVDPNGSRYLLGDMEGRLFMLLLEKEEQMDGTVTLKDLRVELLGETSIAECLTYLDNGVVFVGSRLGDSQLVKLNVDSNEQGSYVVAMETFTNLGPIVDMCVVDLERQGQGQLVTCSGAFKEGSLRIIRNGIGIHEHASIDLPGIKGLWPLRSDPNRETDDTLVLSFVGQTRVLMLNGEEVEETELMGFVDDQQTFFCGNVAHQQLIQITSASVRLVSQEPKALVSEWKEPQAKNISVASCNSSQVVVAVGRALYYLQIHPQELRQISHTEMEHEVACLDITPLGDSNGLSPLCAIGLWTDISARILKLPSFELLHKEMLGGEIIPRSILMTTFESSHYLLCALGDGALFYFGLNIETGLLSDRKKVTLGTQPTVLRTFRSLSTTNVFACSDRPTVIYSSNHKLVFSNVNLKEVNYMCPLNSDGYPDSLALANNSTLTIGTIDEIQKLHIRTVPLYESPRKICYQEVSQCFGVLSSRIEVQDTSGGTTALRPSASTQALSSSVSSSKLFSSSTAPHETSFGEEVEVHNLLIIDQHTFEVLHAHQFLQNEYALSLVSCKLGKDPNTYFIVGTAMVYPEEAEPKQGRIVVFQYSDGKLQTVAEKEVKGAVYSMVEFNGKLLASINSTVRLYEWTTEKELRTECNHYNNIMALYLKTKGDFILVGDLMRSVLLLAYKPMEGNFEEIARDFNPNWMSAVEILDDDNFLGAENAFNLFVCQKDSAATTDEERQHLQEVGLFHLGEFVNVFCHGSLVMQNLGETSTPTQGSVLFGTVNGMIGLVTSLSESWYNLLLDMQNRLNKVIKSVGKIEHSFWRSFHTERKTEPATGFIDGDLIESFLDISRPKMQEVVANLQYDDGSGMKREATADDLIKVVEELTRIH
How it was run: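 Endogenous HiBiT knock-in on BRAF V600E in A375 cells (clone A375.10); 11-point half-log series, top 10 μM, 2, 6 or 24 h at 37° C. Lytic HiBiT luminescence, background-subtracted, normalized to DMSO; 4-parameter fit gives DC50, Emax (residual protein) and IP (inflection point).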

[1] = 2 hours, inflection point, read-out: HiBiT-Degradation A375.10 BRAF 2 hours IP
[2] = 2 hours, read-out: HiBiT-Degradation A375.10 BRAF 2 hours DC50
[3] = 2 hours, residual protein remaining, read-out: HiBiT-Degradation A375.10 BRAF 2 hours Emax
[4] = HiBiT, 24 hours, read-out: HiBiT-Degradation A375.10 BRAF 24 hours DC50
[5] = HiBiT, 24 hours, read-out: HiBiT-Degradation A375.10 BRAF 24 hours Emax
[6] = HiBiT, 24 hours, read-out: HiBiT-Degradation A375.10 BRAF 24 hours IP

## CCN(C)S(=O)(=O)Nc1ccc(F)c(Oc2ccc3ncn([C@H]4COC5(C4)CN(C4CC6(C4)CN(c4cc7c(cc4F)c(N4CCC(=O)NC4=O)nn7C)C6)C5)c(=O)c3c2)c1C#N [Compound 310, (7R)-7-[6-[2-cyano-3-[[ethyl(methyl)sulfamoyl]amino]-6-fluoro-phenoxy]-4-oxo-quinazolin-3-yl]-2-[2-[3-(2,4-dioxohexahydropyrimidin-1-yl)-5-fluoro-1-methyl-indazol-6-yl]-2-azaspiro[3.3]heptan-6-yl]-5-oxa-2-azaspiro[3.4]octane]
A375-NRAS^Q61K cells
  GI50: 1000 to 10000 nM
  Emax: 50 to 90%
BRAF V600E; [1]
  DC50: < 1000 nM
BRAF V600E; [2]
  DC50: < 1000 nM
BRAF V600E; [3]
  Emax: < 50%
BRAF V600E; [4]
  DC50: < 1000 nM
BRAF V600E; [5]
  Emax: < 50%
BRAF V600E; [6]
  DC50: < 1000 nM

## CCN(C)S(=O)(=O)Nc1ccc(F)c(Oc2ccc3ncn([C@@H]4COC5(C4)CN(C4CC6(C4)CN(c4cc7c(cc4F)c(N4CCC(=O)NC4=O)nn7C)C6)C5)c(=O)c3c2)c1C#N [Compound 311, (7S)-7-[6-[2-cyano-3-[[ethyl(methyl)sulfamoyl]amino]-6-fluoro-phenoxy]-4-oxo-quinazolin-3-yl]-2-[2-[3-(2,4-dioxohexahydropyrimidin-1-yl)-5-fluoro-1-methyl-indazol-6-yl]-2-azaspiro[3.3]heptan-6-yl]-5-oxa-2-azaspiro[3.4]octane]
A375-NRAS^Q61K cells
  GI50: 1000 to 10000 nM
  Emax: 50 to 90%
BRAF V600E; [1]
  DC50: < 1000 nM
BRAF V600E; [2]
  DC50: 1000 to 10000 nM
BRAF V600E; [3]
  Emax: 50 to 90%
BRAF V600E; [4]
  DC50: < 1000 nM
BRAF V600E; [5]
  Emax: < 50%
BRAF V600E; [6]
  DC50: < 1000 nM

## CCN(C)S(=O)(=O)Nc1ccc(F)c(Oc2ccc3ncn(C4CC5(C4)CN(CC4CN(c6cc7c(cc6F)c(N6CCC(=O)NC6=O)nn7C)C4)C5)c(=O)c3c2)c1C#N [Compound 313]
A375-NRAS^Q61K cells
  GI50: < 1000 nM
  Emax: 50 to 90%
BRAF V600E; [1]
  DC50: < 1000 nM
BRAF V600E; [2]
  DC50: < 1000 nM
BRAF V600E; [3]
  Emax: 50 to 90%
BRAF V600E; [4]
  DC50: < 1000 nM
BRAF V600E; [5]
  Emax: < 50%
BRAF V600E; [6]
  DC50: < 1000 nM

## CCN(C)S(=O)(=O)Nc1ccc(F)c(Oc2ccc3ncn(C4CC5(C4)CN(C4CC6(CCN(c7cc8c(cc7F)c(N7CCC(=O)NC7=O)nn8C)CC6)C4)C5)c(=O)c3c2)c1C#N (centres unmarked) [Compound 314, 6-[2-cyano-3-[[ethyl(methyl)sulfamoyl]amino]-6-fluoro-phenoxy]-3-[2-[7-[3-(2,4-dioxohexahydropyrimidin-1-yl)-5-fluoro-1-methyl-indazol-6-yl]-7-azaspiro[3.5]nonan-2-yl]-2-azaspiro[3.3]heptan-6-yl]-4-oxo-quinazoline]
A375-NRAS^Q61K cells
  GI50: < 1000 nM
  Emax: 50 to 90%
BRAF V600E; [1]
  DC50: < 1000 nM
BRAF V600E; [2]
  DC50: < 1000 nM
BRAF V600E; [3]
  Emax: < 50%
BRAF V600E; [4]
  DC50: < 1000 nM
BRAF V600E; [5]
  Emax: < 50%
BRAF V600E; [6]
  DC50: < 1000 nM

Reference: patent US20260297060A1, “COMPOUNDS FOR THE DEGRADATION OF MUTANT BRAF” (C4 THERAPEUTICS, INC., priority 2023, published 2026)
